Laboratory results published in the supplement of paper PMC13380429.

Assays:
Details in all cases: 72 h
U2OS [1] = assay: relative viability EC50 (midpoint between 100% and the lowest measured viability); higher = less toxic
Vero E6 [2] = assay: as above
HepG2 [3] = assay: as above
Caco-2 [4] = assay: as above
Calu-3 [5] = assay: as above
U2OS [6] = assay: cell viability relative to DMSO; higher = less toxic
Vero E6 [7] = assay: as above
HepG2 [8] = assay: as above
Caco-2 [9] = assay: as above
Calu-3 [10] = assay: as above
U2OS [11] = assay: drug sensitivity score (DSS) for viability; higher = more toxic; extreme values may be limits of the assay
Vero E6 [12] = assay: as above
HepG2 [13] = assay: as above
Caco-2 [14] = assay: as above
Calu-3 [15] = assay: as above

| Structure (SMILES) | relative viability EC50 (U2OS [1]) | relative viability EC50 (Vero E6 [2]) | relative viability EC50 (HepG2 [3]) | relative viability EC50 (Caco-2 [4]) | relative viability EC50 (Calu-3 [5]) | cell viability (U2OS [6]; 1 nM) | cell viability (U2OS [6]; 10 nM) | cell viability (U2OS [6]; 100 nM) | cell viability (U2OS [6]; 1000 nM) | cell viability (U2OS [6]; 10000 nM) | cell viability (Vero E6 [7]; 1 nM) | cell viability (Vero E6 [7]; 10 nM) | cell viability (Vero E6 [7]; 100 nM) | cell viability (Vero E6 [7]; 1000 nM) | cell viability (Vero E6 [7]; 10000 nM) | cell viability (HepG2 [8]; 1 nM) | cell viability (HepG2 [8]; 10 nM) | cell viability (HepG2 [8]; 100 nM) | cell viability (HepG2 [8]; 1000 nM) | cell viability (HepG2 [8]; 10000 nM) | cell viability (Caco-2 [9]; 1 nM) | cell viability (Caco-2 [9]; 10 nM) | cell viability (Caco-2 [9]; 100 nM) | cell viability (Caco-2 [9]; 1000 nM) | cell viability (Caco-2 [9]; 10000 nM) | cell viability (Calu-3 [10]; 1 nM) | cell viability (Calu-3 [10]; 10 nM) | cell viability (Calu-3 [10]; 100 nM) | cell viability (Calu-3 [10]; 1000 nM) | cell viability (Calu-3 [10]; 10000 nM) | drug sensitivity score (U2OS [11]) | drug sensitivity score (Vero E6 [12]) | drug sensitivity score (HepG2 [13]) | drug sensitivity score (Caco-2 [14]) | drug sensitivity score (Calu-3 [15]) |
| --- | --- | --- | --- | --- | --- | --- | --- | --- | --- | --- | --- | --- | --- | --- | --- | --- | --- | --- | --- | --- | --- | --- | --- | --- | --- | --- | --- | --- | --- | --- | --- | --- | --- | --- | --- |
| O=C1O[C@H]([C@@H](O)CO)C([O-])=C1O.[Na+] [sodium-ascorbate] | > 10 µM | > 10 µM | > 10 µM | > 10 µM | > 10 µM | 97.9% | 89.9% | 101% | 97.7% | 103% | 97.5% | 107% | 97.2% | 100% | 106% | 96.8% | 104% | 92.1% | 110% | 111% | 91.7% | 93.1% | 98.9% | 95.2% | 102% | 100% | 102% | 97% | 98.5% | 102% | 0 | 0 | 0 | 0 | 0 |
| COc1ccc(-c2ccc3c(N4CCOC[C@@H]4C)nc(N4CCOC[C@@H]4C)nc3n2)cc1CO [AZD8055] | 0.101 µM | 0.123 µM | 0.0808 µM | 0.0545 µM | 0.0265 µM | 99% | 102% | 57.5% | 22.8% | 16.1% | 96.9% | 89.7% | 69.9% | 40.1% | 30.3% | 99.4% | 90.8% | 54.7% | 27.1% | 18.9% | 94.3% | 88.2% | 54% | 34.6% | 28.2% | 101% | 83.7% | 37.6% | 26.4% | 27.2% | 20 | 15 | 19.7 | 18.8 | 23 |
| CCc1ccccc1OC[C@@H](O)CN[C@H]1CCCc2ccccc21 | > 10 µM | > 10 µM | > 10 µM | > 10 µM | > 10 µM | 96.6% | 92.2% | 98.2% | 95.5% | 87% | 94.7% | 97.2% | 89.5% | 95.3% | 106% | 95.6% | 103% | 99.1% | 99.9% | 89.5% | 102% | 98.9% | 100% | 95.6% | 87.6% | 104% | 98.5% | 99.7% | 91.1% | 80.8% | 0 | 0 | 0 | 0.3 | 1.4 |
| CC(C)(CC(=O)N1CCCC1)NCC(=O)N1C[C@@H](F)C[C@H]1C#N [DBPR108] | > 10 µM | > 10 µM | > 10 µM | > 10 µM | > 10 µM | 97.9% | 98.1% | 99.1% | 100% | 92.9% | 99.6% | 99.9% | 104% | 92.2% | 102% | 96.2% | 102% | 94.6% | 104% | 105% | 91.1% | 93.5% | 86.4% | 95.6% | 95% | 107% | 97.5% | 100% | 98.9% | 95% | 0 | 0 | 0 | 0 | 0 |
| C=CCC1(CC(C)C)C(=O)NC(=O)NC1=O [butalbital] | > 10 µM | > 10 µM | > 10 µM | > 10 µM | > 10 µM | 95.1% | 97.6% | 98.8% | 94.3% | 112% | 105% | 106% | 118% | 109% | 89.9% | 108% | 99.6% | 92.5% | 109% | 94.8% | 82.1% | 114% | 80.1% | 105% | 102% | 94.5% | 96.7% | 102% | 103% | 114% | 0 | 0 | 0 | 0 | 0 |
| N=C(N)c1ccc(N2CCN(C3CCN(CC(=O)O)CC3)CC2)cc1 | > 10 µM | > 10 µM | > 10 µM | > 10 µM | > 10 µM | 97.6% | 103% | 95.6% | 96.9% | 102% | 97.9% | 98.6% | 99.2% | 93.5% | 96.9% | 111% | 96.8% | 101% | 107% | 102% | 83% | 97.2% | 89.2% | 92.5% | 104% | 91.4% | 96.4% | 90% | 92% | 100% | 0 | 0 | 0 | 0 | 0 |
| CCn1cnc2c(Nc3cccc(Cl)c3)nc(N[C@@H]3CCCC[C@@H]3N)nc21 | 2.8 µM | 2.94 µM | 3.5 µM | 2.82 µM | 3.25 µM | 102% | 94.4% | 102% | 95.3% | 0.9% | 94.1% | 98.9% | 96.1% | 97.2% | 6.3% | 91.4% | 112% | 103% | 106% | 1.1% | 91.9% | 98.8% | 103% | 96.8% | 27.8% | 97.4% | 90.9% | 108% | 101% | 19.5% | 6.2 | 5.6 | 5 | 4.4 | 4.4 |
| O[C@@H](Cc1ccncc1)C(Cl)(Cl)Cl [PETCM] | > 10 µM | > 10 µM | > 10 µM | > 10 µM | > 10 µM | 98.8% | 93.3% | 99.1% | 93.3% | 99.1% | 94.7% | 97.1% | 96% | 102% | 98.2% | 101% | 103% | 95.2% | 99.3% | 97.8% | 99.4% | 95.8% | 103% | 98.7% | 105% | 98.8% | 89.8% | 114% | 95.3% | 110% | 0 | 0 | 0 | 0 | 0 |
| OC[C@H]1O[C@H](O[C@]2(CCl)O[C@H](CCl)[C@@H](O)[C@@H]2O)[C@H](O)[C@@H](O)[C@H]1Cl [sucralose] | > 10 µM | > 10 µM | > 10 µM | > 10 µM | > 10 µM | 102% | 100% | 103% | 96% | 103% | 100% | 102% | 101% | 106% | 92.7% | 99.1% | 97.7% | 96.8% | 96.2% | 97% | 96.8% | 94.1% | 99.1% | 95.9% | 101% | 99.6% | 91.8% | 98.5% | 99.1% | 95.5% | 0 | 0 | 0 | 0 | 0 |
| CCCN(CCC)C1Cc2cc(OC)c(OC)cc2C1 | > 10 µM | > 10 µM | > 10 µM | > 10 µM | > 10 µM | 102% | 97.5% | 100% | 99.5% | 104% | 103% | 103% | 103% | 102% | 99% | 96.1% | 106% | 101% | 99.8% | 94.6% | 96.6% | 99.6% | 94.1% | 98.3% | 89.9% | 96.9% | 108% | 92.3% | 93.7% | 108% | 0 | 0 | 0 | 0 | 0 |
| Cc1csc(S(=O)(=O)N(CC(C)C)c2cc3c(cc2OCc2ccc(C(=O)O)cc2)CCC3)n1 [ONO-8130] | > 10 µM | > 10 µM | > 10 µM | > 10 µM | > 10 µM | 97.9% | 103% | 97.5% | 101% | 95.1% | 107% | 102% | 99.3% | 97% | 98.6% | 110% | 95.3% | 96.8% | 94.8% | 93.6% | 99% | 104% | 96.4% | 99.2% | 91.6% | 98.5% | 101% | 97.6% | 98.5% | 99.5% | 0 | 0 | 0 | 0 | 0 |
| CN1CCN(CC(=O)N2c3ccccc3C(=O)Nc3cccnc32)CC1 [pirenzepine] | > 10 µM | > 10 µM | > 10 µM | > 10 µM | > 10 µM | 96.1% | 93.8% | 99.6% | 98.7% | 101% | 103% | 101% | 98.4% | 103% | 102% | 113% | 99.9% | 88.9% | 103% | 97.7% | 85.5% | 103% | 99.9% | 93.9% | 95% | 97.5% | 87.3% | 104% | 96.3% | 103% | 0 | 0 | 0 | 0 | 0 |
| COc1ccc2c(c1)c(C1=C(c3c[nH]c4ccccc34)C(=O)NC1=O)cn2CCCN(C)C [go-6983] | > 10 µM | > 10 µM | 3.52 µM | > 10 µM | > 10 µM | 94.4% | 92.2% | 104% | 91.4% | 79.6% | 108% | 104% | 97.7% | 103% | 75.3% | 105% | 94.7% | 87.1% | 105% | 31.7% | 110% | 95.6% | 108% | 101% | 85.7% | 98.9% | 85.1% | 99% | 83.9% | 84% | 1.6 | 0.7 | 3.4 | 0.2 | 1.2 |
| C=CCN1CC[C@]23c4c5ccc(O)c4O[C@H]2/C(=N/NC(=O)c2ccccc2)CC[C@@]3(O)[C@H]1C5 [naloxone-benzoylhydrazone] | > 10 µM | > 10 µM | > 10 µM | > 10 µM | > 10 µM | 100% | 101% | 97.4% | 103% | 105% | 97.9% | 102% | 102% | 97.2% | 107% | 101% | 99.5% | 102% | 96.4% | 101% | 91.7% | 93.8% | 101% | 94.7% | 112% | 95.4% | 95.8% | 89.4% | 103% | 112% | 0 | 0 | 0 | 0 | 0 |
